The values below are quoted from earlier work in patent US20260272898A1 (Bayer Aktiengesellschaft, priority 2024, published 2026).

The conditions of this data set: in vivo.

Regarding `CCOc1ncc(C)c2c1[C@H](c1ccc(C#N)cc1OC)C(C(N)=O)=C(C)N2` [finerenone, (4S)-4-(4-cyano-2-methoxyphenyl)-5-ethoxy-2,8-dimethyl-1,4-dihydro-1,6-naphthyridine-3-carboxamide], the half-life result was “short”.
